Data: the supplement of paper PMC9663587

Tests used:
Assay in all cases: area over the GR curve, 72 h; higher = more effect;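 further: Dye Drop or Deep Dye Drop imaging of viable cells in 384-well plates (Hoechst nuclei, LIVE/DEAD dye), nine half-log doses, GR normalized to DMSO controls and time-zero plates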
HCC1419 = test system: HCC1419
184A1 = test system: 184A1
T47D = test system: T47D
SKBR3 = test system: SKBR3
SUM190PT = test system: SUM190PT
SUM1315 = test system: SUM1315
HCC1806 = test system: HCC1806
CAL120 = test system: CAL120
MDAMB231 = test system: MDAMB231
SUM185PE = test system: SUM185PE
HS578T = test system: HS578T

SMILES	area over the GR curve (HCC1419) [GR]	area over the GR curve (184A1) [GR]	area over the GR curve (T47D) [GR]	area over the GR curve (SKBR3) [GR]	area over the GR curve (SUM190PT) [GR]	area over the GR curve (SUM1315) [GR]	area over the GR curve (HCC1806) [GR]	area over the GR curve (CAL120) [GR]	area over the GR curve (MDAMB231) [GR]	area over the GR curve (SUM185PE) [GR]	area over the GR curve (HS578T) [GR]
COc1ccc2c(c1)[C@]1(C[C@H]1c1ccc3c(/C=C/c4ccc(CN5C[C@@H](C)O[C@@H](C)C5)cc4)n[nH]c3c1)C(=O)N2	0.425	0.668	0.79	0.711	0.751	0.83	0.94	0.518	0.765	0.161	0.941
COc1cccc(OCCCN)c1-c1cc(Nc2cnc(C#N)cn2)n[nH]1	0.413	0.0009	0.18	0.802	0.598	0.809	1.39	0.344	1.09	0.167	1.3
CC(=O)Nc1cccc(-n2c(=O)n(C3CC3)c(=O)c3c(Nc4ccc(I)cc4F)n(C)c(=O)c(C)c32)c1 (max 1 µM)	0.285	0.659	0.213	0.182	0.0746	0.389	0.104	0.294	0.722	-0.0188	0.491
CCc1cnn2c(NCc3ccc[n+]([O-])c3)cc(N3CCCC[C@H]3CCO)nc12 (max 1 µM)	0.443	0.636	0.47	0.835	0.654	0.766	0.643	0.555	0.663	0.261	0.616
CC(=O)c1c(C)c2cnc(Nc3ccc(N4CCNCC4)cn3)nc2n(C2CCCC2)c1=O (max 3.162 µM)	0.208	0.375	0.45	0.285	0.319	0.33	0.146	0.142	0.345	0.0458	0.32
CCc1cncnc1N1CCN(Cc2nc3ccc(C(F)(F)F)cc3[nH]2)CC1 (max 10 µM)	0.112	-0.0012	0.122	0.0204	0.0049	0.0975	-0.0429	0.0139	0.0105	0.144	0.0252
CCCCOc1c(C(=O)c2c(F)cc(C)cc2F)c[nH]c2nncc1-2 (max 10 µM)	0.301	0.954	0.649	0.541	0.715	0.872	0.455	0.346	0.334	0.103	0.651
CCN1CCN(Cc2ccc(Nc3ncc(F)c(-c4cc(F)c5nc(C)n(C(C)C)c5c4)n3)nc2)CC1 (max 10 µM)	0.433	0.635	0.766	0.536	0.66	0.582	0.392	0.478	0.675	0.254	0.634
CNc1nc(-c2ccc3c(N)n[nH]c3c2)cc(N2C[C@@H](C(=O)NC3CCCCC3)CC[C@H]2C)n1 (max 10 µM)	0.245	0.135	0.394	0.318	0.292	0.291	0.0151	0.0896	0.149	0.224	0.157
CO[C@@H](C)Cn1c(=O)n(C)c2cnc3ccc(-c4cncc(C(C)(C)O)c4)cc3c21 (max 10 µM)	0.979	0.761	0.894	0.824	1.16	0.693	0.43	0.696	0.607	0.679	0.688
Cc1nn(C)c(COc2ccc(N3CCN(S(=O)(=O)N(C)C)CC3)cc2)c1-c1cccc2c(CCCOc3cccc4ccccc34)c(C(=O)O)n(CCN3CCOCC3)c12 (max 10 µM)	0.0402	0.0952	0.0143	0.0389	-0.063	-0.0531	-0.0123	0.0152	0.0519	0.117	-0.0079
CN(C)CC[C@H](CSc1ccccc1)Nc1ccc(S(=O)(=O)NC(=O)c2ccc(N3CCN(Cc4ccccc4-c4ccc(Cl)cc4)CC3)cc2)cc1[N+](=O)[O-] [ABT-737] (max 10 µM)	-0.0276	0.153	-0.0166	-0.0209	0.492	0.0822	-0.111	0.2	0.162	0.319	0.026
C=CCn1c(=O)c2cnc(Nc3ccc(N4CCN(C)CC4)cc3)nc2n1-c1cccc(C(C)(C)O)n1 [AZD1775] (max 10 µM)	0.238	0.366	0.113	0.528	0.615	1.02	0.847	0.483	0.606	0.212	0.759
CNC(=O)c1cccc(-c2ccc3c(N4CCOC[C@@H]4C)nc(N4CCOC[C@@H]4C)nc3n2)c1 [AZD2014] (max 10 µM)	0.942	0.729	0.959	0.87	0.844	0.663	0.349	0.464	0.405	0.606	0.504
NC1(C(=O)N[C@@H](CCO)c2ccc(Cl)cc2)CCN(c2nc[nH]c3nccc2-3)CC1 [AZD5363] (max 10 µM)	0.189	0.122	0.623	0.23	0.272	0.144	0.0705	0.0399	-0.0246	0.267	0.248
C[C@@H]1COCCN1c1cc(C2([S@](C)(=N)=O)CC2)nc(-c2cc[nH]c3nccc2-3)n1 [AZD6738] (max 10 µM)	0.0421	-0.0342	-0.205	0.335	0.124	0.0543	0.307	-0.169	-0.0233	0.0637	0.0772
NC(=O)Nc1cc(-c2cccc(F)c2)sc1C(=O)N[C@H]1CCCNC1 [AZD7762] (max 10 µM)	0.561	-0.0013	-0.0211	0.88	0.57	0.68	0.89	0.492	0.527	0.447	0.863
